Assay results from patent publication US8952054B2, “Small molecule inhibitors of MUC1 and methods of identifying the same” (Dana-Farber Cancer Institute, Inc., priority 2010, dated 2015).

What was measured:
Assay type in all cases: cell-based, human
[1] = system: MCF-7 cells; test: MCF-7 cell number (MTS), caspase-9 cleavage, PI uptake and colony formation; settings: for colony formation: 2 weeks
Description: FIGS. 14A-E—Apigenin suppresses MUC1 expression in MCF-7 cells. (FIG. 14A) MCF-7 cells were treated with DMSO vehicle, 75 μM apigenin or 75 μM baicalein for 3 d. Total RNA was assayed for MUC1 mRNA levels by qRTPCR. The results (mean+SD of 3 determinations) are expressed as relative MUC1 mRNA levels as compared to that obtained in cells treated with DMSO. (FIGS. 14B-C) MCF-7 cells were treated with the indicated concentrations of apigenin and baicalein for 3 days. Nuclear (FIG. 14B) and whole cell lysates (FIG. 14C) were immunoblotted with the indicated antibodies. D. Lysates from MCF-7 cells were infected to stably express a control lentivirus and one with a MUC1 shRNA were immunoblotted with the indicated antibodies. (FIG. 14E) The indicated MCF-7 cells were treated with […] apigenin for 3 d. Viable cell number was determined by the MTS assay. The results (mean+SD of 3 determinations) are expressed as percentage of control growth in the presence of DMSO.
FIGS. 15A-C—Apigenin inhibits MCF-7 clonogenic survival. (FIG. 15A) MCF-7 cells were treated with DMSO, 75 μM apigenin or 75 μM baicalein for 3 d. Lysates were immunoblotted with the indicated antibodies. (FIG. 15B) MCF-7 cells were treated with DMSO, 75 μM apigenin or 75 μM baicalein for 3 d, stained with propidium iodide and analyzed by flow cytometry. […] (FIG. 15C) MCF-7 cells were plated at a density of 1000 cells/6 cm dish. At 24 h after seeding, DMSO or apigenin at concentrations of 25, 50 and 75 μM was added to the medium. After 2 weeks, colonies were stained with crystal violet. The results (mean+SD of 3 determinations) are expressed as percentage of control colony formation in the presence of DMSO.

[2] = system: HCC1937 cells; test: HCC1937 viability (MTS); settings: HCC1937 (low to undetectable MUC1-C), 3 d
Description: FIGS. 16A-D—Effects of apigenin on breast cancer cells without and with endogenous MUC1 expression. (FIG. 16A) Lysates from human MCF-7, HCC1937 and BT474 cells were immunoblotted with the indicated antibodies. (FIG. 16B) BT474 cells were treated with indicated concentrations of apigenin and baicalein for 3 d, washed and then treated for an additional 3 d. Lysates were immunoblotted with the indicated antibodies. (FIG. 16C) BT474 (triangles) and HCC1937 (squares) cells were treated with apigenin for 3 d. Viable cell numbers were determined by MTS assay. The results (mean+SD of 3 determinations) are expressed as percentage of control growth in the presence of DMSO. (FIG. 16D) BT474 cells were plated at a density of 5000 cells/6 cm dish. At 24 h after seeding, DMSO or apigenin at concentrations of 25, 50 and 75 μM was added to the medium. After 2 weeks, colonies were stained with crystal violet. The results (mean+SD of 3 determinations) are expressed as percentage of control colony formation in the presence of DMSO.

[3] = system: MCF-7 cells; test: Cell cycle distribution and necrosis by flow cytometry, MCF-7; settings: MCF-7, 5 μM, 3 and 4 d
Description: FIGS. 3A-D. MUC1/CQC peptide induces S phase arrest and necrosis. ZR-75-1 (FIGS. 2A-B) and MCF-7 (FIGS. 2C-D) cells were treated with 5 μM MUC1/CQC or MUC1/AQA for 3 and 4 d. Cells were fixed and analyzed for cell cycle distribution by flow cytometry (FIGS. 2A and 2C). The percentage of cells in G1, S and G2/M phases is included in the panels. Cells were also stained with propidium iodide and analyzed by flow cytometry for necrosis (FIGS. 2B and 2D). The percentage of necrotic cells is included in the panels.
Cells were harvested, washed with PBS, fixed with 80% ethanol, and incubated in PBS containing 40 μg/ml RNAse and 40 μg/ml propidium iodide for 30 min at 37° C. Cell cycle distribution was determined by flow cytometry. Sub-G1 DNA content was assessed by staining ethanol-fixed and citrate buffer-permeabilized cells with propidium iodide and monitoring by flow cytometry as described (Yin et al., 2007). For assessment of necrosis, cells were incubated with 1 μg/ml propidium iodide/PBS for 5 min at room temperature and then monitored by flow cytometry as described (Yin et al., 2007).

[4] = system: ZR-75-1/vector cells; test: Viable cell number by trypan blue exclusion, ZR-75-1/vector; settings: 5 μM
Description: (§1) FIGS. 4A-E. Selectivity of MUC1/CQC for MUC1 expressing breast cancer cells. (FIG. 4A) ZR-75-1 cells were stably infected with an empty lentivirus (vector) or one expressing a MUC1 siRNA. Lysates for the infected cells were immunoblotted with the indicated antibodies. (FIG. 4B) ZR-75-1/vector cells were left untreated (diamonds), and ZR-75-1/vector (squares) and ZR-75-1/MUC1 siRNA (triangles) cells were treated with 5 μM MUC1/CQC peptide for the indicated times. Viable cell number was determined by trypan blue exclusion. (FIG. 4C) 293 cells were left untreated (diamonds), and treated with 5 μM MUC1/CQC (squares) or MUC1/AQA (triangles) for the indicated times. Viable cell number was determined by trypan blue exclusion. (FIG. 4D) MCF-10A cells were left untreated (left panel), and treated with 5 μM MUC1/CQC (middle panel) or MUC1/AQA (right panel). At 3 d, cells were analyzed for cell cycle distribution. […] Viable cell number was determined by trypan blue exclusion.
(§2) Human breast cancer ZR-75-1, ZR-75-1/vector, ZR-75-1/MUC1siRNA (Ren et al., 2004) cell lines were grown in RPMI1640 medium supplemented with 10% heat-inactivated fetal bovine serum (HI-FBS), 100 U/ml penicillin, and 100 μg/ml streptomycin (Invitrogen) in a humidified incubator at 37° C. and 5% CO2. […] Viability was determined by trypan blue exclusion.

[5] = system: ZR-75-1/MUC1siRNA cells; test: Viable cell number by trypan blue exclusion, ZR-75-1/MUC1siRNA; settings: 5 μM, versus ZR-75-1/vector
Description: as §1, §2

[6] = system: MUC1-negative 293 cells; test: Viable cell number by trypan blue exclusion, 293 cells; settings: 5 μM
Description: as §1, §2

| SMILES | colony formation ([1]; MCF-7, 25 μM) | caspase-9 cleavage ([1]; MCF-7, 75 μM, 3 d) | cell membrane integrity (PI) ([1]; MCF-7, 75 μM, 3 d) | effect of silencing MUC1 (shRNA) on apigenin-induced decreases in cell number ([1]; MCF-7, 75 µM, 3 d, MTS) | colony formation ([1]; MCF-7, higher concentrations (50 and 75 μM)) | viability (MTS) [2] | cell cycle distribution [3] | necrosis (propidium iodide) [3] | growth / viable cell number [4] | growth / viable cell number [5] | growth / viable cell number [6] |
| --- | --- | --- | --- | --- | --- | --- | --- | --- | --- | --- | --- |
| O=c1cc(-c2ccc(O)cc2)oc2cc(O)cc(O)c12 [Apigenin, 4′,5,7-trihydroxyflavone] | substantial decrease in colonies | cleavage of caspase-9 | loss of cell membrane integrity | partially decreased sensitivity | complete loss of survival | not |  |  |  |  |  |
| CC[C@H](C)[C@H](NC(=O)[C@H](CC(=O)O)NC(=O)[C@H](CC(C)C)NC(=O)[C@H](CCC(N)=O)NC(=O)CNC(=O)[C@H](Cc1ccc(O)cc1)NC(=O)[C@H](CC(N)=O)NC(=O)[C@H](CCCCN)NC(=O)[C@H](CCCNC(=N)N)NC(=O)[C@H](CCCNC(=N)N)NC(=O)[C@H](CS)NC(=O)[C@H](CCC(N)=O)NC(=O)[C@H](CS)NC(=O)[C@@H](CCCNC(=N)N)NC(=O)[C@@H](CCCNC(=N)N)NC(=O)[C@@H](CCCNC(=N)N)NC(=O)[C@@H](CCCNC(=N)N)NC(=O)[C@@H](CCCNC(=N)N)NC(=O)[C@@H](CCCNC(=N)N)NC(=O)[C@@H](CCCNC(=N)N)NC(=O)[C@@H](CCCNC(=N)N)NC(=O)[C@H](N)CCCNC(=N)N)C(=O)N[C@@H](Cc1ccccc1)C(=O)N1CCC[C@H]1C(=O)O [MUC1/CQC] |  |  |  |  |  |  | arrest of growth in S phase | induction of necrosis | growth arrest and death | substantially less effect | no apparent effect |
